# Source: patent US20200237864A1, “METHODS AND COMPOSITIONS FOR TREATING FIBROTIC INTERSTITIAL LUNG DISEASE” (INSERM (INSTITUT NATIONAL DE LA SANTÉ ET DE LA RECHERCHE …, priority 2017, published 2020)
# Assays:
# [1] = tested on: Primary human normal lung fibroblasts (CCD-16Lu cells); assay: Lung fibroblast cell growth assay; assay type: cell-based; conditions: CK666 100 μM vs DMSO, Day 4
# Experimental: (§1) Primary human normal lung fibroblasts (CCD-16Lu cells, American Type Culture Collection, Manassas, Va., USA) were grown in DMEM-Glutamax medium supplemented with 10% fetal bovine serum and penicillin/streptomycin (Thermofisher, Villebon-sur-Yvette, France), at 37° C. with 5% CO2. Experiments were performed between passages 7 and 12, when cells reached 70% confluency. Fibroblasts were treated either with 100 μM CK666 (Tocris, Lille, France) or 1/1000 dimethylsulfoxide (DMSO, Sigma,St Quentin Fallavier, France) as a control. In a second set of experiments, fibroblasts were transfected with 4 nM of either short interfering RNAs targeting ARPC2 (siARPC2, Silencer Select, Thermofisher) or control RNAs (siControl), using the Lipofectamine RNAimax reagent (Thermofisher). For cell growth assays, 50 000 cells/well were plated in 12-well plates, grown for 4 days, detached with 5% trypsin and counted using Kova Glasstic counting slides (Thermofisher). […] Cell proteins were recovered in 100 μl lysis buffer (50 mM Tris HCl pH7.4, 150 mM NaCl, 0.1% SDS, 0.5% sodium deoxycholate, 1% Triton X-100) with 1% protease inhibitor (P8340, Sigma) and quantitated by the BiCinchoninic acid Assay (Pierce, Thermofisher); mRNA was extracted using the GeneJET RNA Purification Kit (Thermofisher).
# [2] = tested on: G/F actin ratio in lung fibroblasts (CCD-16Lu cells); assay: Determination of G- and F-actin levels in lung fibroblasts; assay type: cell-based, human
# Experimental: as §1, with “In a second set of experiments, fibroblasts were transfected with 4 nM of either short interfering RNAs targeting ARPC2 (siARPC2, Silencer Select, Thermofisher) or control RNAs (siControl), using the Lipofectamine RNAimax reagent (Thermofisher).” left out
# 500 000 cells were seeded in 75 cm2 flasks and treated with either CK666 or DMSO for 24 h. […] Supernatant (G-actin) and pellet (F-actin) samples were analyzed by immunoblotting on polyvinylidene fluoride membranes using a beta-actin primary antibody (Sigma).
# ACTA2 = assay: Spontaneous and TGFB1-induced ACTA2 expression in lung fibroblasts (RTPCR, cell-based ELISA); set-up: species or system human
# Experimental: (§2) Primary human normal lung fibroblasts (CCD-16Lu cells, American Type Culture Collection, Manassas, Va., USA) were grown in DMEM-Glutamax medium supplemented with 10% fetal bovine serum and penicillin/streptomycin (Thermofisher, Villebon-sur-Yvette, France), at 37° C. with 5% CO2. Experiments were performed between passages 7 and 12, when cells reached 70% confluency. Fibroblasts were treated either with 100 μM CK666 (Tocris, Lille, France) or 1/1000 dimethylsulfoxide (DMSO, Sigma,St Quentin Fallavier, France) as a control. In a second set of experiments, fibroblasts were transfected with 4 nM of either short interfering RNAs targeting ARPC2 (siARPC2, Silencer Select, Thermofisher) or control RNAs (siControl), using the Lipofectamine RNAimax reagent (Thermofisher). For cell growth assays, 50 000 cells/well were plated in 12-well plates, grown for 4 days, detached with 5% trypsin and counted using Kova Glasstic counting slides (Thermofisher). For differentiation assays, cells were plated in 12-well plates, grown to 70% confluency, treated for 24 h with siControl or siARPC2 when appropriate, starved of serum for 24 h, and treated with either CK666 or DMSO 30 minutes before treatment with either 5 ng/ml recombinant human TGFB1 (R&D Systems, Lille, France) of control solvent for 48h. Cell proteins were recovered in 100 μl lysis buffer (50 mM Tris HCl pH7.4, 150 mM NaCl, 0.1% SDS, 0.5% sodium deoxycholate, 1% Triton X-100) with 1% protease inhibitor (P8340, Sigma) and quantitated by the BiCinchoninic acid Assay (Pierce, Thermofisher); mRNA was extracted using the GeneJET RNA Purification Kit (Thermofisher).
# For cell-based ELISA, cells were grown in 12-well plates, fixed with 4% paraformaldehyde for 15 min, permeabilized with 0.5% Triton X-100 in PBS, blocked with 1% bovine albumin, incubated overnight at 4° C. with an ACTA2 primary antibody (A2547, dilution 1/1000, Sigma), and sequentially incubated with an anti-mouse biotinylated antibody (Vector, dilution 1/400), streptavidin-horseradish peroxidase (R&D Systems), and Tetramethylbenzidine substrate (Sigma). The reaction was stopped with […] and absorbance readings were taken at 450 nm with 570 nm as a reference wavelength. […]
# (§3) RNAs were reverse-transcribed using the First Strand cDNA Synthesis Kit (Thermofisher). Transcripts were quantified by RTPCR (Sybr select Master Mix, Thermofisher) and expressed relative to UBC (human samples) or Gapdh (mouse samples) as an endogenous control using the 2^−ΔCt method.
# COL1 = assay: Spontaneous and TGFB1-induced COL1 expression in lung fibroblasts (RTPCR, ELISA); assay type: cell-based, human; conditions: CK666 100 μM
# Experimental: as §2
# Procollagen-1 (COL1) and Glyćeraldéhyde-3-phosphate déshydrogenase (GAPDH) were quantified by ELISA (DY6220 and DYC5718, R&D Systems). COL1 was expressed relative to GAPDH as an endogenous control.
# as §3
# [3] = tested on: bleomycin-induced lung fibrosis; assay type: in vivo, C57BL6-J mice
# Experimental: Male, 8-week old C57BL6-J mice (Janvier, Le Genest-St-Ile, France) were treated with an orotracheal instillation of either 120 μg bleomycin (Laboratoires Bellon, France) or saline, under isoflurane anesthesia. In a first set of experiments, mice were treated from the 7th to the 14th day following instillation with daily subcutaneous injections of either 5 mg/kg of the Arp2/3 inhibitor CK666 (Tocris Biochemicals, Bristol, UK) in 100 μl of 40% Dimethylsulfoxide in saline (vehicle) (M. Park et al. 2013), or vehicle alone. Mice were monitored and weighted daily and their diet was supplemented with gel-based food (Dietgel Recovery gels, ClearH2O, Westbrook, Me., USA). On the 14th day following bleomycin, mice were anesthetized with 300 mg/kg Ketamine and 30 mg/kg xylazine, and euthanized by exsanguination. Bronchoalveolar lavage was performed with 2×1 ml saline. Lung were either snap-frozen in liquid nitrogen or inflation-fixed in 4% formaldehyde. Inhibition of the Arp2/3 complex in vivo. The study protocol was approved by the regional ethics board (APAFIS#5669-20 16061413402331).
# Total insoluble collagen was quantified in left lung homogenates (Sircol Insoluble collagen Assay, Biocolor, Carrickfergus, UK). Soluble procollagen-1 was quantified in homogenates of the right upper lung lobe by ELISA (DY6220, R&D Systems). RNAs were extracted from the right middle lung lobe (Allprep, Qiagen) and reverse-transcribed (First Strand cDNA Synthesis Kit, Thermofisher). Transcripts associated with fibrogenesis were quantified by RTPCR (Sybr select Master Mix, Thermofisher) and expressed relative to Gapdh as an endogenous control. The activity of enzymes key to collagen polymerization and degradation was measured in lysates of right lower lobe using fluorimetric assays specific for lysil oxidase (Amplite™ Fluorimetric Lysyl Oxidase Assay, AAT Bioquest, Sunnyvale, Calif., USA) and collagenase (fluorimetric DQ collagen type 1, Sigma Aldrich, St Quentin-Fallavier, France). Clostridium histolyticum collagenase (Sigma-Aldrich) was used as a positive control for collagenase assays. Total BALF proteins were measured with the BCA protein assay (Thermofisher). BALF cells were counted using a hemocytometer. For histological analysis, 5-μm sections of paraffin-embedded lung were stained with Masson's trichrome stain.
# [4] = bleomycin-instilled mice, CK666 vs vehicle
# [5] = lung lysates, bleomycin-instilled mice, CK666 vs vehicle
# [6] = mouse lungs, CK666 5 mg/kg daily day 7-14, RTPCR
structure (smiles),measurement,setting,value
Cc1[nH]c2ccccc2c1CCNC(=O)c1ccccc1F [CK666],reduction of cell growth (fold-increase in cell number relative to seeding),[1],36%
same,TGFB1-induced increase in the G/F actin ratio,"[2]; TGFB1 5 ng/ml, CK666 100 μM or 4 nM siARPC2",inhibited
same,G/F actin ratio,"[2]; unstimulated lung fibroblasts, CK666 100 μM vs DMSO or 4 nM siARPC2 vs siControl",increased
same,TGFB1-driven increase in ACTA2 mRNA,"ACTA2; TGFB1 5 ng/ml 48 h, RTPCR",partially
same,TGFB1-driven increase in ACTA2 protein,"ACTA2; TGFB1 5 ng/ml 48 h, cell-based ELISA",totally
same,expression of ACTA2 mRNA,"ACTA2; unstimulated lung fibroblasts, CK666 100 μM, RTPCR",did not modulate
same,expression of ACTA2 protein,"ACTA2; unstimulated lung fibroblasts, CK666 100 μM, cell-based ELISA",did not modulate
same,reduction of the TGFB1-driven increase in COL1 protein,"COL1; TGFB1 5 ng/ml, ELISA, trend, p=0.13",30%
same,TGFB1-driven increase in COL1A1 mRNA,"COL1; TGFB1 5 ng/ml, RTPCR",did not modulate
same,TGFB1-driven increase in COL1A2 mRNA,"COL1; TGFB1 5 ng/ml, RTPCR",did not modulate
same,reduction of COL1/GAPDH protein ratio,"COL1; unstimulated cells, ELISA",54%
same,expression of COL1A1 mRNA,"COL1; unstimulated cells, RTPCR",did not modulate
same,expression of COL1A2 mRNA,"COL1; unstimulated cells, RTPCR",did not modulate
same,reduction of lung content in procollagen-1,"[3]; bleomycin-instilled mice, CK666 5 mg/kg daily day 7-14 vs vehicle, ELISA",55%
same,bleomycin-induced increase in BALF total protein,[3]; [4],reduced neither
same,bleomycin-induced weight loss,[3]; [4],reduced neither
same,lung levels of LOX mRNA,[3]; [4],did not reduced
same,lung levels of LOXL2 mRNA,[3]; [4],did not reduced
same,lung levels of TG2 mRNA,[3]; [4],did not reduced
same,bleomycin-induced increase in lung Collal mRNA,"[3]; bleomycin-instilled mice, CK666 vs vehicle, RTPCR relative to Gapdh",did not reduce
same,reduction of lung insoluble collagen,"[3]; bleomycin-instilled mice, left lung, CK666 5 mg/kg daily day 7-14 vs vehicle, Sircol assay",20%
same,bleomycin-induced increase in lung lysyl oxidase activity,[3]; [5],not modified
same,lung collagenase activity,[3]; [5],no effect
same,lung expression of Arp2 mRNA,[3]; [6],increased expression
same,lung expression of ArpCla mRNA,[3]; [6],increased expression
same,lung expression of Arpc3 mRNA,[3]; [6],increased expression
same,lung histology,"[3]; mouse, in vivo",did not result in modifications of lung histology
